Results published in patent US20230051589A1, “COMPOUNDS AND COMPOSITIONS FOR TREATING CONDITIONS ASSOCIATED WITH NLRP ACTIVITY” (Novartis AG, priority 2018, published 2023).
Where two headings read alike, the source gives them in different places.

System: IL-1β production in hTHP-1 cells
Assay: hTHP-1 assay containing 10% fetal bovine serum
Format: cell-based, human
Procedure: inhibition=100-100×[HCave−Readout/(HCave−LCave)] • 2. Fit the normalized data in a dose-response manner using XLfit, and calculate the compound concentration. Tables B1, B2, and B3 show the biological activity of compounds in hTHP-1 assay containing 2% fetal bovine serum. […] Key: <0.008 μM=“++++++”; ≥0.008 and <0.04 μM=“+++++”; ≥0.04 and <0.2 μM=“++++”; ≥0.2 and <1 μM=“+++”; ≥1 and <5 μM=“++”; ≥5 and <30 μM=“+”.

[1] = Homo sapiens, read-out: hTHP-1 IC50 in 10% FBS, hTHP-1 assay containing 10% fetal bovine serum, Table B4
[2] = read-out: hTHP-1 IC50 in 10% FBS, hTHP-1 assay containing 10% fetal bovine serum, Table B4

Structure (SMILES) | IC50 [1] | IC50 [2]
CC(C)(O)c1csc(S(N)(=O)=NC(=O)Nc2c3c(cc4c2CCC4)CCC3)c1F (stereo not drawn) [Example 878, 3-Fluoro-N′-((1,2,3,5,6,7-hexahydro-s-indacen-4-yl)carbamoyl)-4-(2-hydroxypropan-2-yl)thiophene-2-sulfonimidamide] | 40 to 200 nM | 
CC(C)(O)c1csc(S(N)(=O)=NC(=O)Nc2c3c(cc4c2CCC4)CCC3)c1F (single isomer, unassigned) [Example 881, (S) or (R)-3-fluoro-N′-((1,2,3,5,6,7-hexahydro-s-indacen-4-yl)carbamoyl)-4-(2-hydroxypropan-2-yl)thiophene-2-sulfonimidamide] |  | 5000 to 30000 nM
CC(C)(O)c1csc(S(N)(=O)=NC(=O)Nc2c3c(cc4c2CCC4)CCC3)c1F (single isomer, unassigned) [Example 880, (R) or (S)-3-fluoro-N′-((1,2,3,5,6,7-hexahydro-s-indacen-4-yl)carbamoyl)-4-(2-hydroxypropan-2-yl)thiophene-2-sulfonimidamide] |  | 40 to 200 nM

Second part, the compound after the results:

IC50 [1] | IC50 [2] | Structure (SMILES)
40 to 200 nM |  | CC(C)(O)c1csc(S(N)(=O)=NC(=O)Nc2c3c(cc4c2CC4)CCC3)c1F (stereo not drawn) [Example 879, 3-Fluoro-4-(2-hydroxypropan-2-yl)-N′-((2,4,5,6-tetrahydro-1H-cyclobuta[f]inden-3-yl)carbamoyl)thiophene-2-sulfonimidamide]
 | 8 to 40 nM | CC(C)(O)c1csc(S(N)(=O)=NC(=O)Nc2c3c(cc4c2CC4)CCC3)c1F (single isomer, unassigned) [Example 882, (R) or (S)-3-fluoro-4-(2-hydroxypropan-2-yl)-N′-((2,4,5,6-tetrahydro-1H-cyclobuta[f]inden-3-yl)carbamoyl)thiophene-2-sulfonimidamide]
 | 1000 to 5000 nM | CC(C)(O)c1csc(S(N)(=O)=NC(=O)Nc2c3c(cc4c2CC4)CCC3)c1F (single isomer, unassigned) [Example 883, (S) or (R)-3-fluoro-4-(2-hydroxypropan-2-yl)-N′-((2,4,5,6-tetrahvdro-1H-cyclobuta[f]inden-3-yl)carbamoyl)thiophene-2-sulfonimidamide]
